The source of these data is US5747540A, “HIV protease inhibitors useful for the treatment of AIDS” (Merck & Co., Inc., priority 1996, dated 1998).

The target in experiment [1] is T1, HIV protease (Human immunodeficiency virus type 1 group M subtype B, UniProt P12497).
T1 construct: the protease expressed in Eschericia coli; made in house; host or cells: Escherichia coli
The experiment is described as follows: Assay for inhibition of microbial expressed HIV protease (peptide substrate, HPLC). Type of experiment: biochemical. As to conditions: protease expressed in Eschericia coli, 50 mM Na acetate, pH 5.5, 30° C., 1 hour. The method, then: Assay for Inhibition of Microbial Expressed HIV Protease
Inhibition studies of the reaction of the protease expressed in Eschericia coli with a peptide substrate [Val-Ser-Gln-Asn(betanapthyl)Ala-Pro-Ile-Val, 0.5 mg/mL at the time the reaction is initiated] were in 50 mM Na acetate, pH 5.5, at 30° C. for 1 hour. Various concentrations of inhibitor in […] DMSO were added to […] of the peptide solution in water. The reaction is initiated by the addition of […] of 0.33 nM protease (0.11 ng) in a solution of 0.133M Na acetate pH 5.5 and 0.1% bovine serum albumin. The reaction was quenched with 160 ml of 5% phosphoric acid. Products of the reaction were separated by HPLC (VYDAC wide pore 5 cm C-18 reverse phase, acetonitrile gradient, 0.1% phosphoric acid). The extent of inhibition of the reaction was determined from the peak heights of the products.

The subject of experiment [2] is HIV-1 strain IIIb. The experiment is described as follows: Inhibition of virus spread in HIV-infected MT-4 cells (p24 antigen). Type of experiment: cell-based. Conditions: Human immunodeficiency virus 1, MT4, 72 h; HIV-1 IIIb-infected MT-4 cells; 3 days incubation; HIV p24 antigen in supernatant; read-out: CIC95. As to the method:
INHIBITION OF VIRUS SPREAD
A. Preparation of HIV-infected MT-4 cell Suspension.
MT cells were infected at Day 0 at a concentration of 250,000 per ml with a 1:1000 dilution of HIV-1 strain IIIb stock (final 125 pg p24/ml; sufficient to yield ≤1% infected cells on day 1 and 25-100% on day 4). Cells were infected and grown in the following medium: RPMI 1640 (Whittaker BioProducts), 10% inactivated fetal bovine serum, 4 mM glutamine (Gibco Labs) and 1:100 Penicillin-Streptomycin (Gibco Labs).
The mixture was incubated overnight at 37° C. in 5% CO2 atmosphere.
B. Treatment with Inhibitors
A matrix of nanomolar range concentrations of the pairwise combinations was prepared. At Day 1, aliquots of […] of inhibitors were added to equal volumes of HIV-infected MT-4 cells (50,000 per well) in a 96-well microtiter cell culture plate. Incubation was continued for 3 days at 37° C. in 5% CO2 atmosphere.
C. Measurement of Virus Spread
Using a multichannel pipettor, the settled cells were resuspended and […] harvested into a separate microtiter plate. The supernatant was assayed for HIV p24 antigen.
The concentration of HIV p24 antigen was measured by an enzyme immunoassay,described as follows. Aliquots of p24 antigen to be measured were added to microwells coated with a monoclonal antibody specific for HIV core antigen. […]

Structures are written as SMILES. pIC50: −log10 of the molar value.

As a reminder, the pIC50 is the IC50 on a negative log10 scale, so that one unit is a factor of ten. Low readings indicate a high IC50, high ones a low IC50.

With `CC(C)(C)NS(=O)(=O)c1ccccc1C[C@@H](O)C[C@@H](Cc1ccccc1)C(=O)N[C@H]1c2ccccc2C[C@H]1O` [Compound B], in experiment [1], the pIC50 was 8.22 to 9.00. Further, the IC95 in experiment [2] is 1500 nM. `Cc1ccc(C[C@@H](O)C[C@@H](Cc2ccccc2)C(=O)N[C@H]2c3ccccc3C[C@H]2O)c(C(=O)NC(C)(C)C)c1` [Compound C] had a pIC50 in experiment [1] of 8.22 to 9.00. Regarding `CC(C)(C)NC(=O)c1ccccc1C[C@@H](O)C[C@@H](Cc1ccccc1)C(=O)N[C@H]1c2ccccc2C[C@H]1O` [Compound A], the negative-log IC50 (pIC50) in experiment [1] is 8.22 to 9.00. In addition, the IC95 in experiment [2] was found to be 800 nM.
